{
  "source": "ChEMBL document CHEMBL1126870",
  "about": "“The crystal structure, absolute configuration, and phosphodiesterase inhibitory activity of (+)-1-(4-bromobenzyl)-4-(3-(cyclopentyloxy)- 4-methoxyphenyl)-pyrrolidin-2-one” (J Med Chem, 1993)",
  "molecular_target": "Phosphodiesterase 4 (Homo sapiens, UniProt P27815+Q08499+Q07343+Q08493)",
  "test": "Inhibition of partially-purified PDE 4 from human monocytes",
  "data": [
    {"smiles": "COc1ccc([C@@H]2CC(=O)N(Cc3ccc(Br)cc3)C2)cc1OC1CCCC1", "values": [
      {"measurement": "IC50", "value": 170, "unit": "nM"}
    ]},
    {"smiles": "COc1ccc([C@H]2CC(=O)N(Cc3ccc(Br)cc3)C2)cc1OC1CCCC1", "values": [
      {"measurement": "IC50", "value": 740, "unit": "nM"}
    ]}
  ]
}
